Test results from patent US8754076B2, “Cyclic inhibitors of 11beta-hydroxysteroid dehydrogenase 1” (Vitae Pharmaceuticals, Inc./Boehringer-Ingelheim, priority 2008, dated 2014).

Columns and labels:
human CYP2C9 = human CYP2C9 (Homo sapiens, UniProt P11712); assay: Biological Test Example 9: CYP2C9 inhibition (Invitrogen kit, fluorogenic substrate OOMR); assay type: in vitro ADME
human 11β-HSD1 = target: T1, human 11β-HSD1 (Homo sapiens, UniProt P28845); assay type: biochemical
T1 construct: expressed in transfected cells; host or cells: CHO cells (microsomal preparation)
T1 sequence (P28845 whole entry): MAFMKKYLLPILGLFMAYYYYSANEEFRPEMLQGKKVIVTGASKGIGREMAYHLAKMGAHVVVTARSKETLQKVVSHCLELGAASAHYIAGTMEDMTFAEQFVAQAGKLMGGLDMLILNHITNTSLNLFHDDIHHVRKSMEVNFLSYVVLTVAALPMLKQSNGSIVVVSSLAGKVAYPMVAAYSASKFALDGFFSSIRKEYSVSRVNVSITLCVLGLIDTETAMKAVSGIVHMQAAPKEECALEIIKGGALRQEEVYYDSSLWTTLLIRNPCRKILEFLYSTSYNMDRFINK

Sequence of human CYP2C9 (P11712 whole entry): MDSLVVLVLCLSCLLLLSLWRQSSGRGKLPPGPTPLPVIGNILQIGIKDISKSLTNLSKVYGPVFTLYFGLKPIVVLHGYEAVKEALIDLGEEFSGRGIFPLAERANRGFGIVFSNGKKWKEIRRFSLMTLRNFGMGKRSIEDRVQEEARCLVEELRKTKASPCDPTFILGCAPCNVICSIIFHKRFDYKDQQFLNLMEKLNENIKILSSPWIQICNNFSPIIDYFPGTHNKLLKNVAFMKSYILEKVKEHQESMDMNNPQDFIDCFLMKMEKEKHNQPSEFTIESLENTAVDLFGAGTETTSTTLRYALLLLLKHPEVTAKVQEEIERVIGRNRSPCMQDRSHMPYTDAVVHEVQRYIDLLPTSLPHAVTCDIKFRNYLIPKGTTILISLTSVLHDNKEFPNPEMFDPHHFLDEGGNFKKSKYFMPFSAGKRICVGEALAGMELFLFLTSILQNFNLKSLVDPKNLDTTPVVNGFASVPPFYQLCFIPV

IC50 (human CYP2C9) [µM] | Compound | Shift (human 11β-HSD1)
28.5 | C[C@@H](c1ccc(-c2ccn(C3CC3)c(=O)c2)cc1)N1CCC(CC2CC2)(CC(C)(C)O)OC1=O (single isomer, unassigned) [93 Isomer 1] | 
 | C[C@@H](c1ccc(-c2cccn(C)c2=O)cc1)N1CC[C@](CCCO)(c2ccc(F)cc2)OC1=O [Example 42, (R)-6-(4-fluorophenyl)-6-(3-hydroxypropyl)-3-((S)-1-(4-(1-methyl-2-oxo-1,2-dihydropyridin-3-yl)phenyl)ethyl)-1,3-oxazinan-2-one] | 7.97
> 30 | C[C@@H](c1ccc(-c2ccn(C)c(=O)c2)cc1)N1CC[C@](CC(C)(C)O)(c2ccccc2)OC1=O [Example 48, (S)-6-(2-hydroxy-2-methylpropyl)-3-((S)-1-(4-(1-methyl-2-oxo-1,2-dihydropyridin-4-yl)phenyl)ethyl)-6-phenyl-1,3-oxazinan-2-one] | 
> 30 | CCn1cc(-c2ccc([C@H](C)N3CC[C@](CC(C)(C)O)(c4ccccc4)OC3=O)cc2)ccc1=O [Example 53, (S)-3-((S)-1-(4-(1-ethyl-6-oxo-1,6-dihydropyridin-3-yl)phenyl)ethyl)-6-(2-hydroxy-2-methylpropyl)-6-phenyl-1,3-oxazinan-2-one] | 
